target: T1, Sodium/glucose cotransporter 2 (Homo sapiens, UniProt P31639); experiment: Inhibition Assay: For sodium-dependent glucose transport assay, cells expressing hSGLT2 were seeded into a 96-well culture plate at a density of 5x10^4 cells/well in RPMI medium 1640 containing 10% fetal bovine serum. The cells were used 1 day after plating. They were incubated in pretreatment buffer (10 mM HEPES, 5 mM Tris, 140 mM choline chloride, 2 mM KCl, 1 mM CaCl2, and 1 mM MgCl2, pH 7.4) at 37 C. for 10 min. They were then incubated in uptake buffer (10 mM HEPES, 5 mM Tris, 140 mM NaCl, 2 mM KCl, 1 mM CaCl2, 1 mM MgCl2, and 1 mM 14C-nonlabeled AMG pH 7.4) containing 14C-labeled AMG (8 uM) and the inventive compound or dimethyl sulfoxide (DMSO) vehicle at 37 C. for 2 h. Cells were washed twice with washing buffer (pretreatment buffer containing 10 mM AMG at room temperature) and then the radioactivity was measured using a liquid scintillation counter. IC50 was determined by nonlinear regression analysis using GraphPad PRISM [Katsuno, K. et al. J. Pharmacol. Exp. Ther. 2007, 320, 323-330].
T1 sequence (P31639 whole entry): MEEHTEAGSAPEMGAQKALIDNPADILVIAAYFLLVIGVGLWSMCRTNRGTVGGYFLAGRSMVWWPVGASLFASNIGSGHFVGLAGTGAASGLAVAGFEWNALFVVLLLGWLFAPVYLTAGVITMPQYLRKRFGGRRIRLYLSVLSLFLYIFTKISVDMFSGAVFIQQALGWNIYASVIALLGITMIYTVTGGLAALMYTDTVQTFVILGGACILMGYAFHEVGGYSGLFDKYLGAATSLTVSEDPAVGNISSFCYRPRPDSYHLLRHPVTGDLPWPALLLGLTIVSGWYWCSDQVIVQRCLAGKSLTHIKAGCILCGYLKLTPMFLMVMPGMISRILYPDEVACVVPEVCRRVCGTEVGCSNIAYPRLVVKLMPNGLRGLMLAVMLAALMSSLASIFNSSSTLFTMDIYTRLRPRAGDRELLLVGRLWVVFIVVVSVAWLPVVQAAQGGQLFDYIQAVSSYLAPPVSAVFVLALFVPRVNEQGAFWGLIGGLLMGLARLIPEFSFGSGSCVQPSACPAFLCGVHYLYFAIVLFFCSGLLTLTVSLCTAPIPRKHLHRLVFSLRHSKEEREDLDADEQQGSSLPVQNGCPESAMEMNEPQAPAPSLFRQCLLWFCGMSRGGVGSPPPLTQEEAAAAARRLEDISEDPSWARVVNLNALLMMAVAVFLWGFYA

Q: How did the IC50 turn out when `OC[C@H]1O[C@@H](c2cc(Cc3ccc(N4CCC4)cc3)c(Cl)c3c2CCO3)[C@H](O)[C@@H](O)[C@@H]1O` was run?
A: 3.49 nM

Q: Which IC50 does the source give for `CCOc1ccc(Cc2cc([C@@H]3O[C@H](CO)[C@@H](O)[C@H](O)[C@H]3O)c3c(c2Cl)NCCO3)cc1` here?
A: 2.42 nM

Q: For `CCOc1ccc(Cc2cc([C@@H]3O[C@H](CO)[C@@H](O)[C@H](O)[C@H]3O)c3c(c2C2CC2)OCC3)cc1`, which IC50 is on record?
A: 13.8 nM

Q: `OC[C@H]1O[C@@H](c2cc(Cc3ccc(N4CCC4)cc3)c(Cl)c3c2CCC3)[C@H](O)[C@@H](O)[C@@H]1O` was tested. Which IC50 did it give?
A: 1.75 nM

Q: For `CCOc1ccc(Cc2cc([C@@H]3O[C@H](CO)[C@@H](O)[C@H](O)[C@H]3O)c3c(c2Cl)OCO3)cc1`, which IC50 is on record?
A: 1.08 nM
